From patent publication US20200283734A1, “REPROGRAMMING OF A DIFFERENTIATED CELL TO AN UNDIFFERENTIATED CELL USING EXOSOME” (AGENCY FOR SCIENCE, TECHNOLOGY AND RESEARCH, priority 2017, published 2020) come the findings set out here.

Structures are written as SMILES.

One assay relates to MCF7 EX-iCSCs. In words: Drug resistance assay (Alamar Blue cell viability), MCF7. It counts as cell-based. The following applies: for drug resistance characteristics of EX-iCSCs towards cancer drugs: MCF7 EX-iCSCs (FIG. 17). The protocol: (§1) H7-exosome treated and non-treated A431 and MCF7 cancer cells were seeded at a density of 3×10^3 cells per well in a 96-well plate, in their respective medium. The anticancer drugs, cisplatin, doxorubicin and sunitinib were then added in concentration series ranging from 0.1 to 1000, 0.001 to 10, and 0.1 to 1000 μg/mL, respectively. After time periods of 24, 48 and 72 hours, the cells were subjected to an Alamar Blue assay for cell viability.
(§2) Drug resistance has been associated with stem cell-like traits in cancer cells. The MCF7 and A431 cell lines were treated with exosomes to induce EX-iCSCs, following which they were subjected to viability (Alamar Blue) assays (FIG. 16, FIG. 17).
In general terms: Resazurin is reduced to fluorescent resorufin, in cell work by metabolically active cells.

A further assay relates to A431 EX-iCSCs. The experiment in a line: Drug resistance assay (Alamar Blue cell viability), A431. In kind it is cell-based. The note with it: A431 EX-iCSCs (FIG. 16). The protocol: as §1, §2

For the molecule `N.N.[Cl][Pt][Cl]` [cisplatin], the “drug resistance characteristics of EX-iCSCs towards cancer drugs” value in the assay with MCF7 EX-iCSCs and in the assay on A431 EX-iCSCs was “showed drug resistance characteristics” each time.
As to `COc1cccc2c1C(=O)c1c(O)c3c(c(O)c1C2=O)C[C@@](O)(C(=O)CO)C[C@@H]3O[C@H]1C[C@H](N)[C@H](O)[C@H](C)O1` [doxorubicin], in the assay with MCF7 EX-iCSCs (MCF7, H7-exosome treated, all time points (24, 48 and 72 hours)), the “viability of exosome-treated cells under drug compared to non-treated cells” value was “significantly higher viability”. The “drug resistance characteristics of EX-iCSCs towards cancer drugs” value in the assay with MCF7 EX-iCSCs and with A431 EX-iCSCs was “showed drug resistance characteristics” in each case.
